The source of these data is US9957236B2, “Selective inhibitors interfering with fibroblast growth factor receptor and FRS2 interaction for the prevention and treatment of cancer and other diseases” (LIMITED LIABILITY COMPANY “RUSSIAN PHARMACEUTICAL …, priority 2014, dated 2018).

Each structure is given as a SMILES string.

The target of assay [1] is T1, FGFR2-Fc (Homo sapiens, UniProt P21802).
T1 construct: consisted of human extracellular domain FGFR2α (Inc) and Fc-fragment of human IgG1
The experiment in a line: Enzyme linked FGF2 binding assay with FGFR2-Fc. The conditions noted are these: concentrations of 1 to 1000 nM, FGF-2 + heparin. As to the method: Non-radioactive enzyme linked FGF2 binding assay was performed in order to assess if RPT835 influences on binding of FGFR2 and ligand (FGF-2). Recombinant chimeric protein FGFR2-Fc, which consisted of human extracellular domain FGFR2α (Inc) and Fc-fragment of human IgG1 was used in the binding assay of FGF-2. FGFR2α contained all the 3 immunoglobulin-like domains and represented domain IIIc FGFR2 with high affinity to FGF-2. A 96-cavity plate tablet was covered with FGFR2-Fc protein, and then the following was added into the cavities:
3) inhibitor RPT835 in various concentrations+FGF-2+heparin
4) a part of the cavities remained without stimulators (FGF-2+heparin) and RPT835 (negative control).
After incubation, enzyme-linked immunoassay was carried out using the corresponding antibodies and subsequent determination of OD650 (optic density with wavelength of 650 nm).

Assay [2] deals with SVEC-4-10 endothelial cells. The experiment in a line: Crystal Violet proliferation assay, SVEC-4-10. The assay is classed as cell-based. The following applies: SVEC-4-10, strongly expresses FGFR2; bFGF 100 ng/ml, 7 days. From the text: (§1) This research used additional cell lines: SKOV3 (ovarian cancer, ATCC # HTB-77), HS578T (breast cancer, ATCC # HTB-126), T47D (breast cancer, ATCC #HTB-1336), modified line of non-small cells lung cancer A549, line of metastatic melanoma of skin Mel Kor (RF Patent No. 2287578), and additional study of antiangiogenic activity—cell line SVEC-4-10 (endothelial cells, ATCC #CRL-2181).
(§2) The cells were cultivated in environment RPMI-1640 (PANECO) (SKOV3, HS578T, T47D, Mel-Kor) or DMEM (PANECO) (SVEC-4-10) containing 10% of embryonal serum cattle (FCS, HyClone), 2 mM glutamine (PANECO), antibiotics (100 IU/mL penicillin and […] streptomycin (all PANECO)) at 37° C. and 5% CO2. Cells at 70-80% monolayer were used for the experiments.
(§3) The cells were planted in low density (30 t of cells/ml) in triplets on a 96-cavity plate in an environment containing 0.1% of FCS serum. […] Growth of cells was determined by the modified “Crystal Violet mitogenic method” for 7 days after the experiment start. […] The dye was dissolved in ethanol and measured on a spectrophotometer at 540-560 nm. The curve of cell proliferative activity inhibition was built by the dependence of the percent of the cell quantity (Y axis) on concentration of inhibitor RPT835 in the cavity of the plate (X axis). […]

The subject of assay [3] is HS578T breast cancer cells. The experiment in a line: Crystal Violet proliferation assay, HS578T. The conditions noted are these: low FGFR2 expression, bFGF 100 ng/ml, 7 days. It counts as cell-based.
Description: as §1, §2, §3

Assay [4] has as its system human ovarian cancer SKOV-3. The assay is described as follows: Pathomorphosis of SKOV-3 ovarian tumor in nude mice. It counts as in vivo. The following applies: SKOV-3 in nude mice. As to the method: Immunodefficient mice (Nude, age of the mice as of the treatment start is 8 weeks; nursery “Pushchino”) were subcutaneously inoculated cells of FGFR2 of expressing line of human ovarian cancer SKOV-3. When the average tumor volume of 200 mm3 was achieved, the mice were randomized into the groups of control (standard chemotherapy with paclitaxel and caroplatin) and treatment (inhibitor RPT835). There were 10 mice in each group. Inhibitor RPT835 was assigned in a dose of 50 mg/kg, daily. The tumor volume was measured twice a week. When the tumor volume reached 2,000 mm3, the mice were subjected to euthanasia. Pathomorphosis of the tumor tissue was studied.

In assay [5] the target is T2, FRS2α (Homo sapiens, UniProt Q8WU20).
T2 sequence (Q8WU20 1-508): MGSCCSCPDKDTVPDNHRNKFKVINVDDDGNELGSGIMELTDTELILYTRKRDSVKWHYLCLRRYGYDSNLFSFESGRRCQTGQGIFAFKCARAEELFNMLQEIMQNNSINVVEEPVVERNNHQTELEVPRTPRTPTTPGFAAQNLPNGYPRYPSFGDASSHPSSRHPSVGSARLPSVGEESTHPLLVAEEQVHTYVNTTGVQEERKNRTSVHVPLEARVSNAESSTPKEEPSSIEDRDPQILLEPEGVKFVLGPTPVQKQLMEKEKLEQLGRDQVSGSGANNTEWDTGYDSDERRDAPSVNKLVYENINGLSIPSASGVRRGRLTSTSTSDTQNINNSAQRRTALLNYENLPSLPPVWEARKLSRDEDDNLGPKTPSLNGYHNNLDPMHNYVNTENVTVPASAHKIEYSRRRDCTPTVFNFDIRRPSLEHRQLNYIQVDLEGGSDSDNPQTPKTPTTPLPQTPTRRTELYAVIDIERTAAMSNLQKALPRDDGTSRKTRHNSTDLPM
The assay is described as follows: FRS2α phosphorylation in hFOB cells (Western blotting). It counts as cell-based. Also noted: endogenous in cells; host or cells: hFOB. The conditions noted are these: hFOB (FGFR2 IIIc), RPT835 1 micron, FGF-1 100 ng/ml. As to the method:
(§4) The research assessed the influence of inhibitor RPT835 determined by formula II of this invention, intervention with interaction of FGFR2 represented by two most frequent isoforms IIIb and IIIc with FRS2. For this, human cell line of embryonal osteoblasts (hFOB) expressing only FGFR2 […], and human cell line of breast cancer SUM-52 expressing FGFR2 IIIb (all main versions of isoform—C1, C2, C3) were chosen.
(§5) Cells were divided into the groups: • 1a) hFOB • 1b) hFOB, stimulating FGF-1 (100 ng/ml) • 1c) hFOB, cultivation with RPT835 (1 micron) and stimulation of FGF-1 (100 ng/ml) • 2a) SUM-52 • 2b) SUM-52, stimulation of FGF-1 (100 ng/ml) • 2c) SUM-52, cultivation with RPT835 (1 micron) and stimulation of FGF-1 (100 ng/ml)
(In western blotting, separated proteins are transferred to a membrane and probed.)

In assay [6] the target is T2, FRS2α. The experiment in a line: FRS2α phosphorylation in SUM-52 cells (Western blotting). The assay is classed as cell-based. Also noted: endogenous in cells; host or cells: hFOB. The conditions noted are these: SUM-52 (FGFR2 IIIb), RPT835 1 micron, FGF-1 100 ng/ml. As to the method:
as §4, §5

T1 sequence (P21802 22-377 limits assumed): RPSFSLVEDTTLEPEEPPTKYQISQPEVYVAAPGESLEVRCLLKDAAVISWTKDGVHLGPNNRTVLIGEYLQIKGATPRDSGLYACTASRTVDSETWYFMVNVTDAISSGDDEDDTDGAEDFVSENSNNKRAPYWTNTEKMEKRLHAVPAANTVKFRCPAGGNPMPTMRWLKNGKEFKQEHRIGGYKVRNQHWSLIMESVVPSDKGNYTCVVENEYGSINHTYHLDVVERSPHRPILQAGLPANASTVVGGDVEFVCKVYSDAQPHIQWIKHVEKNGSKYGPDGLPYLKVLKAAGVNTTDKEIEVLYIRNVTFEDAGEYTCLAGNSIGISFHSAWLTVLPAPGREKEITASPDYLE

As for `Cc1cc([N+](=O)[O-])c(NS(=O)(=O)c2cccc(C(=O)O)c2)cc1-c1cccnc1` [RPT835, 3-(N-(4-methyl-2-nitro-5-(pyridin-3-yl)phenyl)sulfamoyl)benzoic acid], in assay [1], the “binding of FGF-2 and FGFR2-Fc” value is “did not influence on binding of ligand with the receptor”. The “inhibition of proliferative activity” value is recorded as “maximum inhibiting effect” in assay [2] and “moderate effect” in assay [3]. In addition, the “part of the tumor represented by massive necroses” value in assay [4] (50 mg/kg daily) is listed as “over 75%”. The “pathomorphosis of the tumor tissue” value in assay [4] (RPT835 50 mg/kg daily, control standard chemotherapy with paclitaxel and caroplatin) is “Pronounced therapeutic pathomorphosis”. Moreover, the FRS2α phosphorylation level entry in assay [5] and in assay [6] was “completely suppressed the phosphorylation” each time.
